Values of other authors in patent publication US20170065526A1, “SOLID DOSAGE FORM OF RIVAROXABAN AND METHODS FOR MAKING THE SAME” (priority 2015, published 2017).
Values after ≈ are worked out from the molar mass of the structure shown.

Conditions: relatively poor solubility, background statement

Question: Which solubility does the source give for `O=C(NC[C@H]1CN(c2ccc(N3CCOCC3=O)cc2)C(=O)O1)c1ccc(Cl)s1` [rivaroxaban, (S)-5-chloro-N-{[2-oxo-3-[4-(3-oxomorpholin-4-yl)phenyl]oxazolidin-5-yl]methyl}thiophene-2-carboxamide] here?
Answer: ~7 µg/mL (≈ 16.1 µM)
